Consider one compound from BindingDB's records for patent US10538528 (Taiho Pahrmaceutical Co., Ltd., 2020).

The target of this test is RAC-alpha serine/threonine-protein kinase (Homo sapiens, UniProt P31749). The test is described as follows: Kinase Activity Assay. As to the method:
Akt1 was prepared and assays of inhibitory activity of the compound according to the present invention against Akt1 kinase activity in vitro were conducted according to the method described in Biochem. J., vol. 385, pp. 399-408, 2005 and Cancer Res., vol. 68, pp. 2366-2374, 2008. In the preparation of Akt1 protein, human Akt1 tagged with the middle T antigen was expressed in an insect cell Sf9, Akt1 was prepared through affinity purification and activation by PDK1, and the resultant was stored at −80° C. until the inhibition assays of the compounds. In the inhibition assay of the compounds, Akt1 and the compound according to the present invention were subjected to pre-incubation at 25° C. for 120 minutes in a reaction buffer (15 mM Tris-HCl, pH 7.5, 0.01% Tween-20, 2 mM DTT). Subsequently, biotinylated Crosstide (biotin-[…], Millipore), MgCl2, and ATP were added as substrates at the final concentration of 500 nM, 10 mM, and 150 μM, respectively, and the reaction was allowed to proceed at 25° C. for 60 minutes. […] In the end, the fluorescence levels irradiated with an excitation light of 337 nm were assayed at two different wavelength levels (i.e., 620 nm and 665 nm) using PI-HERAstar FS (BMG LABTECH) or PHERAstar (BMG LABTECH).

Chain of RAC-alpha serine/threonine-protein kinase (P31749 whole entry): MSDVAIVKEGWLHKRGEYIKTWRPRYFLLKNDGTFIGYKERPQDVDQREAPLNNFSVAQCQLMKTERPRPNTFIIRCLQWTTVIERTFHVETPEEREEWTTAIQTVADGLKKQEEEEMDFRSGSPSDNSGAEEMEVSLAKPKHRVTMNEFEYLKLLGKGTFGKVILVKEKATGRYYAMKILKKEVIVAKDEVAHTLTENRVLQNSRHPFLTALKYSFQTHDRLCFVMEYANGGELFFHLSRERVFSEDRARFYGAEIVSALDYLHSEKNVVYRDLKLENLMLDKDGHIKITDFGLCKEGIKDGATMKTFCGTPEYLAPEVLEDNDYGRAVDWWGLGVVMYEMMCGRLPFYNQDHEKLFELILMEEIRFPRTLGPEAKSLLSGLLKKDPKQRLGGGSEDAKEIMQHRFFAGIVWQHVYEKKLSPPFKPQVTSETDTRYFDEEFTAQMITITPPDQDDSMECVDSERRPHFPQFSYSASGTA

Usually IC50 stands for the point on the concentration scale where inhibition reaches its midpoint. Read a high IC50 as a need for much substance. For the compound `CN(C)CCn1cc(-c2ccc(F)c(C(F)(F)F)c2)nc1C1CCN(c2ncnc3c2C(C)(C)C(=O)N3)CC1` [US10538528, Compound A], the half-maximal inhibitory concentration (IC50) was determined as 52.2 nM.
